System: DU-145 multicell spheroids with HUVEC/MSC, viability
Assay: Anticancer human tumor DU-145 cell line growth inhibition [IpAb];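 note: spheroids exposed to agents for seven days before measurement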;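 for viability, T/C: percent of DMSO vehicle control viability so 100% = untreated level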
Conditions: for IC50: curve of first compound; for viability, T/C: stronger effect = lower value
Source text: Combinatorial screen of targeted agents with ipatasertib and abemaciclib in multi-cell type tumor spheroids
A high-throughput screen of multi-cell type tumor spheroids was designed to identify active combinations of targeted small molecules and ipatasertib or abemaciclib. Complex spheroids include a stromal component modeled by human endothelial cells (HUVEC) and fibroblasts modeled by human mesenchymal stem cells (MSCs). The concentration ranges selected for each drug and investigational agent were based upon clinically achievable concentrations if the clinical Cmax of the agent was known.
Compounds. The drugs and investigational agents: ipatasertib (NSC767898), abemaciclib(NSC768073), selumetinib (NSC741078), trametinib (758246), adavosertib (NSC754352), everolimus (NSC733504), sapanisertib (NSC764658), vemurafenib (NSC761431), venetoclax (NSC766270), copanlisib (NSC809693), apelisib (NSC765974), palbociblib (NSC758247), vemurafenib (NSC761431), dabrafenib (NSC764134), ravoxertinib (NSC781343), BMS-387032 (NSC767048), sotorasib (NSC818433), talazoparib (NSC767125) and afursertib (NSC778305), were obtained from the National Cancer Institute (NCI) Developmental Therapeutics Program Chemical Repository. The FDA-approved anticancer drug set is available from the NCI Developmental Therapeutics Program. […] The stock solutions were prepared in dimethyl sulfoxide (DMSO, Sigma-Aldrich, St. Louis, MO, cat. D2650) at 800-fold the tested concentration and stored at -70 degrees C prior to their use. All drugs and investigational agents were tested over a range starting from a high concentration at or near the clinical Cmax and decreasing in half-log increments. If the clinical Cmax for an agent had not been determined, the highest concentration tested was 10 microM.
NCI60 Cell Culture. NCI60 cell lines were obtained from the NCI Developmental Therapeutics Program Tumor Repository. For each lot of cells, the Repository performed Applied Biosystems AmpFLSTR Identifiler testing with PCR amplification to confirm consistency with the published Identifier STR profile for each cell line. Cells were kept in continuous culture for no more than 20 passages. The optimal seeding densities for each of the cell lines at each time point assessed were determined prior to performing the concentration response studies. Briefly, the NCI60 human tumor lines were grown as monolayers in RPMI 1640 medium supplemented with 10% FBS and 2 mmol/L L-glutamine.
An additional 9 lines were from the NCI60 cell line panel including MDA-MB-231 breast carcinoma, MDA-MB-468 breast carcinoma, MCF7 breast carcinoma, Hs578T breast carcinoma, MALME-3M melanoma, SK-MEL-2 melanoma, SK-OV-3 ovarian carcinoma, DU-145 prostate carcinoma, PC-3 prostate carcinoma, all cell lines along with major genetic alterations are listed on Table 2. Pooled donor human umbilical vein endothelial cells (HUVEC, Lonza, cat. CC-2519) and human mesenchymal stem cells (hMSC, Lonza, cat. PT-2501) were purchased from Lonza (Walkersville, MD).
PDMR cell lines were grown in complete medium (DC medium): Dulbecco's modified Eagle's medium (DMEM)/F12 supplemented with 5% fetal bovine serum (FBS), 2 mM L-glutamine, 100 U/mL penicillin and 100 µg/ml streptomycin, 0.4 µg/ml hydrocortisone, 10 ng/ml epidermal growth factor (EGF) recombinant human protein, 24 µg/mL adenine, and 0.1 mg/mL primocin. During culture from frozen stock vials, PDMR cells were cultured in the same medium containing 10 µM Y-27632 (see Table 3). The PDCs were cultured in complete DMEM/F12 media without 10 microM Y-27632 dihydrochloride for at least two passages prior to the screen. The pooled donor HUVEC and hMSC were cultured in endothelial cell growth medium 2 (PromoCell, Heidelberg, Germany, cat. C-22011) and mesenchymal stem cell growth medium 2 (PromoCell, cat. C-28009), respectively. For all experiments, HUVEC and hMSC were used at passages </=5.
[…]

[1] = second compound 0.1 µM, first compound 0.0316 µM
[2] = second compound 0.1 µM, first compound 0.1 µM
[3] = second compound 0.316 µM, first compound 0.0316 µM
[4] = second compound 0.316 µM, first compound 0.1 µM
[5] = second compound 1 µM, first compound 0.0316 µM
[6] = second compound 1 µM, first compound 0.1 µM
[7] = second compound 3.16 µM, first compound 0.0316 µM
[8] = second compound 3.16 µM, first compound 0.1 µM
[9] = second compound 10 µM, first compound 0.0316 µM
[10] = second compound 10 µM, first compound 0.1 µM

C=CCn1c(=O)c2cnc(Nc3ccc(N4CCN(C)CC4)cc3)nc2n1-c1cccc(C(C)(C)O)n1 + CC(C)NCC(C(=O)N1CCN(c2ncnc3c2C(C)CC3O)CC1)c1ccc(Cl)cc1
IC50 (second compound 0.1 µM): 82.7 nM
IC50 (second compound 0.316 µM): < 31.6 nM
IC50 (second compound 1 µM): < 31.6 nM
IC50 (second compound 3.16 µM): < 31.6 nM
IC50 (second compound 10 µM): < 31.6 nM
viability, T/C [1]: 71%
viability, T/C [2]: 47.1%
viability, T/C (second compound 0.1 µM, first compound 0.316 µM): 26.5%
viability, T/C (second compound 0.1 µM, first compound 1 µM): 23.9%
viability, T/C (second compound 0.1 µM, first compound 3.16 µM): 17.5%
viability, T/C (second compound 0.1 µM, first compound 10 µM): 13.7%
viability, T/C [3]: 44.6%
viability, T/C [4]: 36.7%
viability, T/C (second compound 0.316 µM, first compound 0.316 µM): 19.3%
viability, T/C (second compound 0.316 µM, first compound 1 µM): 18.8%
viability, T/C (second compound 0.316 µM, first compound 3.16 µM): 15.8%
viability, T/C (second compound 0.316 µM, first compound 10 µM): 12.9%
viability, T/C [5]: 32.7%
viability, T/C [6]: 26.6%
viability, T/C (second compound 1 µM, first compound 0.316 µM): 13.3%
viability, T/C (second compound 1 µM, first compound 1 µM): 15.1%
viability, T/C (second compound 1 µM, first compound 3.16 µM): 14.3%
viability, T/C (second compound 1 µM, first compound 10 µM): 12.6%
viability, T/C [7]: 23%
viability, T/C [8]: 16.1%
viability, T/C (second compound 3.16 µM, first compound 0.316 µM): 10%
viability, T/C (second compound 3.16 µM, first compound 1 µM): 12%
viability, T/C (second compound 3.16 µM, first compound 3.16 µM): 11.8%
viability, T/C (second compound 3.16 µM, first compound 10 µM): 10.4%
viability, T/C [9]: 16.9%
viability, T/C [10]: 14%
viability, T/C (second compound 10 µM, first compound 0.316 µM): 8.4%
viability, T/C (second compound 10 µM, first compound 1 µM): 10.6%
viability, T/C (second compound 10 µM, first compound 3.16 µM): 9.3%
viability, T/C (second compound 10 µM, first compound 10 µM): 9.33%

CC(C)n1nc(-c2ccc3oc(N)nc3c2)c2c(N)ncnc21 + CC(C)NCC(C(=O)N1CCN(c2ncnc3c2C(C)CC3O)CC1)c1ccc(Cl)cc1
IC50 (second compound 0.1 µM): 0.905 nM
IC50 (second compound 0.316 µM): < 0.316 nM
IC50 (second compound 1 µM): < 0.316 nM
IC50 (second compound 3.16 µM): < 0.316 nM
IC50 (second compound 10 µM): < 0.316 nM
viability, T/C (second compound 0.1 µM, first compound 0.000316 µM): 64.2%
viability, T/C (second compound 0.1 µM, first compound 0.001 µM): 48.1%
viability, T/C (second compound 0.1 µM, first compound 0.00316 µM): 32.4%
viability, T/C (second compound 0.1 µM, first compound 0.01 µM): 18.1%
viability, T/C [1]: 12.2%
viability, T/C [2]: 9.34%
viability, T/C (second compound 0.316 µM, first compound 0.000316 µM): 49.2%
viability, T/C (second compound 0.316 µM, first compound 0.001 µM): 32.3%
viability, T/C (second compound 0.316 µM, first compound 0.00316 µM): 22.9%
viability, T/C (second compound 0.316 µM, first compound 0.01 µM): 13.5%
viability, T/C [3]: 9.74%
viability, T/C [4]: 7.89%
viability, T/C (second compound 1 µM, first compound 0.000316 µM): 29%
viability, T/C (second compound 1 µM, first compound 0.001 µM): 23.1%
viability, T/C (second compound 1 µM, first compound 0.00316 µM): 14%
viability, T/C (second compound 1 µM, first compound 0.01 µM): 8.57%
viability, T/C [5]: 7.4%
viability, T/C [6]: 6.44%
viability, T/C (second compound 3.16 µM, first compound 0.000316 µM): 18.6%
viability, T/C (second compound 3.16 µM, first compound 0.001 µM): 14.2%
viability, T/C (second compound 3.16 µM, first compound 0.00316 µM): 9.92%
viability, T/C (second compound 3.16 µM, first compound 0.01 µM): 6.7%
viability, T/C [7]: 6.17%
viability, T/C [8]: 5.92%
viability, T/C (second compound 10 µM, first compound 0.000316 µM): 14.1%
viability, T/C (second compound 10 µM, first compound 0.001 µM): 14.2%
viability, T/C (second compound 10 µM, first compound 0.00316 µM): 7.9%
viability, T/C (second compound 10 µM, first compound 0.01 µM): 6.04%
viability, T/C [9]: 5.82%
viability, T/C [10]: 5.09%
